Measurements: paper PMC8954350, “Non-Canonical Cannabinoid Receptors with Distinct Binding and Signaling Properties in Prostate and Other Cancer Cell Types Mediate Cell Death” (International Journal of Molecular Sciences, 2022)
Read-outs that look alike come from different tables or passages of the source.

Key:
[1] = test system: CBRs expressed in PC-3 membranes; assay: [^3H]WIN-55,212-2 competitive binding screen, PC-3 membranes; set-up: species or system human
Procedure: (§1) The assay was conducted as previously detailed. […] All binding reactions were conducted in triplicate, in a final volume of 1 mL, and, following mixing, were incubated for 20 min in a 37 °C water bath to achieve equilibrium. After incubation, reactions were terminated by rapid vacuum filtration through Whatman GF/B glass fiber filters (Brandel; Gaithersburg, MD, USA), followed by three washes of 4 mls of ice-cold filtration buffer (50 mM Tris, pH 7.4, and 0.05% bovine serum albumin). Samples were punched out from filter papers into scintillation vials, to which 4 mls of ScintiverseTM-BDR cocktail scintillation fluid (Fisher Scientific; Hampton, NH, USA) was added. Filters were incubated at room temperature for 24 h in scintillation fluid, vortexed, and radioactivity (measured as DPMs) was quantified via a liquid scintillation spectrophotometer (Tri Carb 2100 TR Liquid Scintillation Analyzer, Packard Instruments, Meriden, CT, USA).
(§2) These experiments were conducted to screen well-characterized cannabinoid ligands with high affinity for canonical CB1 and/or CB2Rs for binding to CBRs expressed in prostate cancer cells lines, as detailed in [33]. […] All binding reactions were conducted in triplicate, in a final volume of 1 mL, and, following mixing, were incubated for 20 min in a 37 °C water bath to achieve equilibrium. After incubation, reactions were terminated by rapid vacuum filtration and processed for radioactivity, as detailed in Section 4.5.1.

[2] = test system: CBRs expressed in DU-145 membranes; format: binding, human
Procedure: as §1, §2

DU-145 cells [3] = assay: ATP-dependent cell viability, DU-145 cells; format: cell-based, human; settings: co-incubation with 10 μM ligand, 24 h
Procedure: Adenosine 5′-triphosphate (ATP) levels were quantified as a measure of DU-145 cell viability in response to cannabinoid treatement using an ATP-luciferase-based bioluminescence assay kit (CellTiter-Glo®, Sigma, MO, USA) and BioTek microplate reader (Winooski, VT, USA). DU-145 cells were seeded at a density of 8 × 10^3 cells/well in a 96-well plate and incubated for 24 h at 37 °C with 5% CO2. The next day, cells were treated with either vehicle or experimental drugs (10 or 50 μM) and incubated for another 24 h at 37 °C with 5% CO2. ATP levels were assessed following incubation by interpolation from an ATP standard curve according to the manufacturer’s protocol, as described previously.

DU-145 cells [4] = assay: Mitochondrial membrane potential (JC-1 staining), DU-145 cells; format: cell-based, human; settings: 24 h
DU-145 cells [5] = assay: LDH cytotoxicity, DU-145 cells; format: cell-based, human; settings: 500 nM, 24 h
Procedure: DU-145 cells were seeded at a density of 130 × 10^3 cells/well in 6-well plates and maintained in an incubator at 37 °C with 5% CO2 for 24 h. […] Treated cells were incubated for an additional 24 h, followed by quantification of LDH release. LDH released from damaged or dying cells oxidizes lactate to produce NADH which then reacts with a water-soluble tetrazolium salt (WST) reagent to produce a yellow-colored product. The intensity of the yellow-colored product was detected with an OD reading at 450 nm (quantified by a BioTek microplate reader interfaced with SoftMax Pro 5.4.5 software; Winooski, VT, USA) and was directly proportional to the amount of LDH released. Percent cytotoxicity was calculated according to the manufacturer’s protocol as the following: % Cytotoxicity=OD450 Supernatant/Supernatant+Lysate

[6] = test system: CBRs expressed in DU-145 membranes; format: biochemical, human; settings: 10 μM
Procedure: (§3) Non-specific binding was defined as radioactivity remaining in the presence of 10 μM of non-radioactive GTPγS and subtracted from total binding to determine specific [^35S]GTPγS binding. All binding reactions were conducted in triplicate, in a final volume of 1 mL, and, following mixing, were incubated for 30 min at 30 °C. After incubation, reactions were terminated by rapid vacuum filtration through Whatman GF/B glass fiber filters (Brandel; Gaithersburg, MD, USA), followed by three washes of 4 mls of ice-cold filtration buffer (50 mM Tris, pH 7.4, and 0.05% bovine serum albumin). Samples were punched out from filter papers into scintillation vials, to which 4 mls of ScintiverseTM-BDR cocktail scintillation fluid (Fisher Scientific; Hampton, NH, USA) was added. Filters were incubated at room temperature for 24 h in scintillation fluid, vortexed, and radioactivity (measured as DPMs) was determined via a liquid scintillation spectrophotometer (Tri Carb 2100 TR Liquid Scintillation Analyzer, Packard Instruments, Meriden, CT, USA).

[7] = test system: CBRs expressed in PC-3 membranes; assay: [^35S]GTPγS binding, PC-3 membranes; format: biochemical, human; settings: 10 μM
Procedure: as §3, with “[^35S]GTPγS binding experiments were conducted to examine G protein modulation by cannabinoids in prostate cancer cell lines DU-145 and PC-3, as detailed previously. Briefly, CHO-hCB2 (50 μg), PC3 (100 μg), or DU-145 (100 μg) membrane homogenates were incubated with a single receptor-saturating concentration (10^−5 M) of cannabinoid ligands to be examined and 0.1 nM [^35S]GTPγS in incubation buffer (20 mM HEPES buffer, pH 7.4, 10 μM GDP, 100 mM NaCl, 0.1% bovine serum albumin, and 10 mM MgCl2). Non-specific” for “Non-specific”

[8] = 1 μM ligand, 1 nM radioligand, PC-3 membranes

Row | SMILES | displacement of [^3H]WIN-55,212-2 [1, 8] | displacement of [^3H]WIN-55,212-2 [2] | further results
1 | CC(C)[C@H](NC(=O)c1nn(CCCCCF)c2ccccc12)C(N)=O [5F-AB-PINACA] | failed to displace | failed to displace | –
2 | O=C(NC12CC3CC(CC(C3)C1)C2)c1nn(CCCCCF)c2ccccc12 [5F-AKB48] | – | failed to displace | displacement of [^3H]WIN-55,212-2 [1]: failed to displace
3 | CCCCC/C=C\C/C=C\C/C=C\C/C=C\CCCC(=O)NCCCl [ACEA] | – | failed to displace | displacement of [^3H]WIN-55,212-2 [1]: failed to displace
4 | Cc1c(C(=O)NN2CCCCC2)nn(-c2ccc(Cl)cc2Cl)c1-c1ccc(I)cc1 [AM-251] | – | – | attenuation of GW-405833 (50 μM)-induced reduction in ATP concentrations (DU-145 cells [3]): significantly attenuated reductions in ATP concentrations produced by GW-405833; MMP on co-incubation with GW-405833 (10 μM) (DU-145 cells [4]; 10 μM ligand co-incubated): MMP was not significantly reduced from vehicle-treated levels
5 | C=C(C)[C@@H]1CCC(C)=C[C@H]1c1c(O)cc(CCCCC)cc1O [CBD, cannabidiol] | failed to displace | failed to displace | –
6 | O=C(Oc1cccc2ccccc12)c1cn(Cc2ccc(F)cc2)c2ccccc12 [FDU-PB-22] | failed to displace | failed to displace | –
7 | CC(C)c1ccc(NC(=O)Cn2cnc3c2c(=O)n(C)c(=O)n3C)cc1 [HC-030031] | – | Neither the high affinity TRPV1 ligands capsaicin [38], PDDHV [39], and CAY-100448 [40] nor the TRPA1 ligand HC-030031 [41] produced significant displacement | –
8 | Cc1c(C(=O)Nc2cccc(C(F)(F)F)c2)cc(-c2ccccc2)n1CCCN1CCOCC1 [HC-067047] | – | 22 ± 3.8% | –
9 | Cc1ccc(C(=O)c2cn(CCCCCF)c3ccccc23)c2ccccc12 [MAM-2201] | failed to displace | failed to displace | –
10 | CCCCCCCC/C=C\CCCCCCCC(=O)N[C@H](C(=O)O)C(C)C [N-oleoyl-valine] | – | 15 ± 2.7% | –
11 | OCCOc1ccc(/C(=C(/CCCl)c2ccccc2)c2ccccc2)cc1 [OSP, ospemifene] | – | failed to displace | displacement of [^3H]WIN-55,212-2 [1]: failed to displace
12 | CCCCCCCCCC(=O)O[C@@H]1[C@@H](C)[C@@]2(O)[C@@H](C=C(COC(=O)Cc3ccc(O)c(OC)c3)C[C@]3(O)C(=O)C(C)=C[C@@H]23)[C@@H]2C(C)(C)[C@]12OC(=O)CCCCCCCCC [PDDHV] | – | Neither the high affinity TRPV1 ligands capsaicin [38], PDDHV [39], and CAY-100448 [40] nor the TRPA1 ligand HC-030031 [41] produced significant displacement | –
13 | CCCCCc1cc(O)c2c(c1)OC(C)(C)[C@@H]1CCC(C)=C[C@@H]21 [THC, Δ^9-tetrahydrocannabinol] | failed to displace | failed to displace | –
14 | Cc1c(C(=O)c2cccc3ccccc23)c2cccc3c2n1[C@@H](CN1CCOCC1)CO3 [WIN-55,212-3] | – | 13.9 ± 2.7% | displacement of [^3H]WIN-55,212-2 [1]: 20.7 ± 10.3%
15 | COc1cc(CNC(=O)CCCC/C=C/C(C)C)ccc1O [capsaicin] | – | Neither the high affinity TRPV1 ligands capsaicin [38], PDDHV [39], and CAY-100448 [40] nor the TRPA1 ligand HC-030031 [41] produced significant displacement | –
16 | CC(=O)O[C@@]12CO[C@@H]1C[C@H](O)[C@@]1(C)C(=O)[C@H](O)C3=C(C)[C@@H](OC(=O)[C@H](O)[C@@H](NC(=O)OC(C)(C)C)c4ccccc4)C[C@@](O)([C@@H](OC(=O)c4ccccc4)[C@H]21)C3(C)C [docetaxel] | – | – | increase in LDH release (DU-145 cells [5]): 16.8 ± 3.4%; mitochondrial membrane potential (MMP) depolarization (DU-145 cells [4]; 500 nM, JC-1): induced significant mitochondrial membrane depolarization
17 | COc1ccc2c(c1)CCC(c1ccccc1)=C2c1ccc(OCCN2CCCC2)cc1 [nafoxidine] | produced significant (but less) displacement | produced significant (but less) displacement | modulation of [^35S]GTPγS binding [6]: had no effect on G protein activity; modulation of [^35S]GTPγS binding [7]: had no effect on G protein activity
